Where two headings read alike, the source gives them in different places.
Biological target: IDH1 R132H (Homo sapiens, UniProt O75874, R132H)
Test: In vitro assay for IDH1 R132H inhibitors (NADPH/aKG, resazurin detection)
Type: biochemical
Details: 0.2 μg/ml IDH1 R132H, 50 minutes at room temperature
Method: Assays were conducted in a volume of 76 μl assay buffer (150 mM NaCl, 10 mM MgCl2, 20 mM Tris pH 7.5, 0.03% bovine serum albumin) as follows in a standard 384-well plate: To 25 ul of substrate mix (8 uM NADPH, 2 mM aKG), 1 μl of test compound was added in DMSO. The plate was centrifuged briefly, and then 25 μl of enzyme mix was added (0.2 μg/ml IDH1 R132H) followed by a brief centrifugation and shake at 100 RPM. The reaction was incubated for 50 minutes at room temperature, then 25 μl of detection mix (30 μM resazurin, […]) was added and the mixture further incubated for 5 minutes at room temperature. The conversion of resazurin to resorufin was detected by fluorescent spectroscopy at Ex544 Em590 c/o 590.
The compounds of Formula I set forth in Table 1 and the compounds set forth in Table 2 were tested in this assay and the results set forth below in Table 4A and 4B.

[1] = Table 4A, read-out: IC50 (uM), IDH1 R132H Inhibition
[2] = Table 4B, read-out: IC50, IDH1 R132H Inhibition

Sequence of IDH1 R132H (O75874 whole entry R132H): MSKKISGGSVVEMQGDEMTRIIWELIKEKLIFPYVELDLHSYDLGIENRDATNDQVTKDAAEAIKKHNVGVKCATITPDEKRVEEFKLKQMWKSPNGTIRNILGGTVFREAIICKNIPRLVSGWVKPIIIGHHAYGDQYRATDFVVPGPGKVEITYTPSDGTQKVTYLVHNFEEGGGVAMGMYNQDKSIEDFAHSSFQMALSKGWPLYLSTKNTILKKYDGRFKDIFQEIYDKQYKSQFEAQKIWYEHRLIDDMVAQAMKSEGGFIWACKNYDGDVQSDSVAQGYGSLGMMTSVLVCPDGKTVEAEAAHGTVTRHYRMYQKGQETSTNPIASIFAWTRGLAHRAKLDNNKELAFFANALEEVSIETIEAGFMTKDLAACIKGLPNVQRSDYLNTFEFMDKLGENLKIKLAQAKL

| Compound | IC50 [1] [µM] | IC50 [2] [µM] |
| --- | --- | --- |
| O=C(NC1CCCCC1)C(c1ccccc1F)N(C(=O)Cc1cccs1)c1cccc(F)c1 (stereo not drawn) [Compound 34] | ≤ 0.1 | – |
| O=C(NC1CCCCC1)C(c1c(Br)ccc(Br)c1F)N(C(=O)Cc1cccs1)c1cccc(F)c1 (stereo not drawn) [Compound 114] | – | 0.1 to 1 |
| Cc1ccccc1N(C(=O)Cc1cccs1)C(C(=O)NC(C)(C)C)c1cccc(F)c1 (stereo not drawn) [Compound 14] | 10 to 100 | – |
| CC(C)Cc1ccc(C(C(=O)NC2CCCCC2)N(C(=O)Cc2cccs2)c2cccc(F)c2)cc1 (stereo not drawn) [Compound 88] | ≥ 100 | – |
| CCCCCCCCOc1ccc(C(C(=O)NC2CCCCC2)N(C(=O)Cc2cccs2)c2cccc(F)c2)cc1 (stereo not drawn) [Compound 93] | 0.1 to 1 | – |
| O=C(NC1CCCCC1)C(c1cc(Cl)ccc1Cl)N(C(=O)Cc1cccs1)c1cccc(F)c1 (stereo not drawn) [Compound 103] | – | 0.1 to 1 |
| Cc1ccccc1C(C(=O)NC1CCCCC1)N(C(=O)OCc1ccccc1)c1ccccc1 (stereo not drawn) [Compound 391] | – | 0.1 to 1 |
| Cc1ccccc1C(C(=O)NC1CCCC1)N(C(=O)Cn1nnc2ccccc21)c1ccccc1F (stereo not drawn) [Compound 5] | 0.1 to 1 | – |
| Cc1ccccc1C(C(=O)NC1CCCCC1)N(C(=O)Cc1cccs1)C1CCCC1 (stereo not drawn) [Compound 70] | 1 to 10 | – |
| O=C(NC1CCCC1)C(c1ccccc1)N(C(=O)Cc1cccs1)c1cccc(F)c1 (stereo not drawn) [Compound 45] | 0.1 to 1 | – |
| Cc1ccccc1C(C(=O)NC1CCCCC1)N(C(=O)c1c(C)noc1C)c1cccc(F)c1 (stereo not drawn) [Compound 139] | – | 0.1 to 1 |
| O=C(NC1CCCCC1)C(c1ccc(-c2ccccc2)cc1)N(C(=O)Cc1cccs1)c1cccc(F)c1 (stereo not drawn) [Compound 66] | ≥ 100 | – |
| O=C(NC1CCCC1)C(c1ccccc1F)N(C(=O)Cc1cccs1)c1ccccc1F (stereo not drawn) [Compound 47] | 0.1 to 1 | – |
| Cc1ccccc1C(C(=O)NC1CCCCC1)N(C(=O)CNC1CC1)c1cccc(F)c1 (stereo not drawn) [Compound 119] | – | 0.1 to 1 |
| O=C(NC1CCCCC1)C(c1cccc(C(F)(F)F)c1)N(C(=O)Cc1cccs1)c1cccc(F)c1 (stereo not drawn) [Compound 96] | 1 to 10 | – |
| CCCCc1ccc(C(C(=O)NC2CCCCC2)N(C(=O)Cc2cccs2)c2cccc(F)c2)cc1 (stereo not drawn) [Compound 86] | ≥ 100 | – |
| Cc1ccc(N(C(=O)Cc2cccs2)C(C(=O)NC2CCCCC2)c2ccccc2C)cc1 (stereo not drawn) [Compound 144] | – | 0.1 to 1 |
| O=C(NC1CCCCC1)C(c1cccs1)N(C(=O)Cc1cccs1)c1cccc(F)c1 (stereo not drawn) [Compound 94] | 0.1 to 1 | – |
| O=C(NC1CCCCC1)C(c1cc(F)cc(Cl)c1)N(C(=O)Cc1cccs1)c1cccc(F)c1 (stereo not drawn) [Compound 102] | – | 0.1 to 1 |
| Cc1ccccc1C(C(=O)NC1CCCCC1)N(C(=O)CNC1CCCC1)c1cccc(F)c1 (stereo not drawn) [Compound 121] | – | 0.1 to 1 |
| CCOc1cc(C(C(=O)NC2CCCCC2)N(C(=O)Cc2cccs2)c2cccc(F)c2)ccc1OC (stereo not drawn) [Compound 52] | ≥ 100 | – |
| COCOc1ccc(C(C(=O)NC2CCCCC2)N(C(=O)Cc2cccs2)c2cccc(F)c2)cc1 (stereo not drawn) [Compound 85] | 1 to 10 | – |
| Cc1ccccc1C(C(=O)NC1CCCCC1)N(C(=O)Cc1cccs1)c1cccc(Cl)c1 (stereo not drawn) [Compound 140] | – | ≤ 0.1 |
| O=C(NC1CCCCC1)C(c1ccncc1)N(C(=O)Cc1cccs1)c1cccc(F)c1 (stereo not drawn) [Compound 76] | 1 to 10 | – |

| Compound | IC50 [1] [µM] | IC50 [2] [µM] |
| --- | --- | --- |
| O=C(NC1CCCCC1)C(c1cccc(Cl)c1)N(C(=O)Cc1cccs1)c1cccc(F)c1 (stereo not drawn) [Compound 107] | – | 0.1 to 1 |
| O=C(NC1CCCCC1)C(c1ccccc1F)N(C(=O)CNCc1ccncc1)c1cccc(F)c1 (stereo not drawn) [Compound 323] | – | 0.1 to 1 |
| Cc1ccccc1C(C(=O)NC1CCCCC1)N(C(=O)CCNC(=O)OC(C)(C)C)c1cccc(F)c1 (stereo not drawn) [Compound 369] | – | 0.1 to 1 |
| O=C(NC1CCCCC1)C(c1ccccc1)N(C(=O)c1ccccn1)c1cccc(F)c1 (stereo not drawn) [Compound 55] | 1 to 10 | – |
| Cc1ccccc1C(C(=O)NC1CCCCC1)N(C(=O)Cc1cccs1)c1ccc2c(c1)OCCO2 (stereo not drawn) [Compound 149] | – | 0.1 to 1 |
| CC(C)C(C(=O)NC1CCCC1)N(C(=O)Cc1cccs1)c1cccc(F)c1 (stereo not drawn) [Compound 16] | ≥ 100 | – |
| Cc1ccc(N(C(=O)Cc2cccs2)C(C(=O)NC2CCCCC2)c2ccccc2C)cc1Cl (stereo not drawn) [Compound 117] | – | 0.1 to 1 |
| Cc1ccccc1C(C(=O)NC1CCCCC1)N(C(=O)c1cccs1)c1cccc(F)c1 (stereo not drawn) [Compound 138] | – | 0.1 to 1 |
| O=C(NC1CCCC1)C(c1ccccc1Cl)N(C(=O)Cc1cccs1)c1ccccc1F (stereo not drawn) [Compound 2] | 0.1 to 1 | – |
| Cc1ccccc1C(C(=O)NC1CCCC1)N(C(=O)CNS(=O)(=O)c1ccccc1)c1cccc(F)c1 (stereo not drawn) [Compound 28] | 0.1 to 1 | – |
| Cc1ccccc1C(C(=O)NC1CCCCC1)N(C(=O)Cc1cccs1)c1ccc2c(c1)OCO2 (stereo not drawn) [Compound 101] | 0.1 to 1 | – |
| O=C(NC1CCCCC1)C(c1cc(F)ccc1Br)N(C(=O)Cc1cccs1)c1cccc(F)c1 (stereo not drawn) [Compound 129] | – | 0.1 to 1 |
| Cc1ccccc1C(C(=O)NC1CCCC1)N(C(=O)c1ccccn1)c1cccc(F)c1 (stereo not drawn) [Compound 72] | 1 to 10 | – |
| O=C(NC1CCCC1)C(c1ccccc1F)N(C(=O)Cc1cccs1)c1ccc2c(c1)OCO2 (stereo not drawn) [Compound 6] | 0.1 to 1 | – |
| Cc1ccccc1[C@@H](C(=O)NC1CCCCC1)N(C(=O)[C@@H]1CCCCN1S(C)(=O)=O)c1cccc(F)c1 [Compound 349] | – | 0.1 to 1 |
| O=C(NC1CCCC1)C(c1ccccc1Cl)N(C(=O)Cc1cccs1)c1cccc(F)c1 (stereo not drawn) [Compound 44] | ≤ 0.1 | – |
| Cc1ccccc1C(C(=O)NC1CCCC1)N(C(=O)CCl)c1ccccc1F (stereo not drawn) [Compound 75] | 1 to 10 | – |
| Cc1ccccc1C(C(=O)NC1CCCCC1)N(Cc1cccs1)C(=O)Cn1nnc2ccccc21 (stereo not drawn) [Compound 157] | – | 0.1 to 1 |
| O=C(NC1CCCCC1)C(c1cccc(Br)c1)N(C(=O)Cc1cccs1)c1cccc(F)c1 (stereo not drawn) [Compound 115] | – | 0.1 to 1 |
| Cc1ccccc1C(C(=O)NC1CCCCC1)N(C(=O)c1ccc2c(c1)OCO2)c1cccc(F)c1 (stereo not drawn) [Compound 132] | – | 0.1 to 1 |
| Cc1ccccc1C(C(=O)NC1CCCCC1)N(C(=O)Cc1cccs1)c1cccc(Cl)c1Cl (stereo not drawn) [Compound 97] | 1 to 10 | – |
| CCc1ccccc1C(C(=O)NC1CCCCC1)N(C(=O)Cc1cccs1)c1cccc(F)c1 (stereo not drawn) [Compound 65] | 0.1 to 1 | – |
| Cc1ccccc1[C@H](C(=O)NC1CCCCC1)N(C(=O)Cc1cccs1)c1cccc(F)c1 [Compound 53] | 1 to 10 | – |
| Cc1cccc(C(C(=O)NC2CCCCC2)N(C(=O)Cc2cccs2)c2cccc(F)c2)c1 (stereo not drawn) [Compound 89] | 0.1 to 1 | – |

| Compound | IC50 [1] [µM] | IC50 [2] [µM] |
| --- | --- | --- |
| Cc1ccccc1C(C(=O)NC1CCCCC1)N(C(=O)c1ccccn1)c1cccc(F)c1 (stereo not drawn) [Compound 32] | 1 to 10 | – |
| N#Cc1ncn(CC(=O)N(c2cccc(F)c2)C(C(=O)NC2CCCCC2)c2ccccc2Cl)c1C#N (stereo not drawn) [Compound 384] | – | 0.1 to 1 |
| O=C(NC1CCCCC1)C(c1ccccc1)N(C(=O)Cc1cccs1)c1ccccc1 (stereo not drawn) [Compound 100] | 0.1 to 1 | – |
| COc1cccc(N(C(=O)Cc2cccs2)C(C(=O)NC2CCCC2)c2ccccc2)c1 (stereo not drawn) [Compound 1] | 0.1 to 1 | – |
| CCOc1ccccc1C(C(=O)NC1CCCCC1)N(C(=O)Cc1cccs1)c1cccc(F)c1 (stereo not drawn) [Compound 64] | 1 to 10 | – |
| Cc1ccccc1C(C(=O)NC1CCCCC1)N(C(=O)CNCc1ccccc1)c1cccc(F)c1 (stereo not drawn) [Compound 152] | – | 0.1 to 1 |
| Cc1ccccc1C(C(=O)NC1CCCCC1)N(Cc1ccccc1)C(=O)Cc1cccs1 (stereo not drawn) [Compound 71] | 1 to 10 | – |
| O=C(NC1CCCCC1)C(c1ccc(-n2ccnc2)cc1)N(C(=O)Cc1cccs1)c1cccc(F)c1 (stereo not drawn) [Compound 83] | 10 to 100 | – |
| Cc1ccccc1C(C(=O)NC1CCCCC1)N(C(=O)Cc1cccs1)c1cccc(F)c1 (stereo not drawn) [Compound 15] | ≤ 0.1 | – |
| O=C(NC1CCCCC1)C(C1CCCC1)N(C(=O)Cc1cccs1)c1cccc(F)c1 (stereo not drawn) [Compound 61] | 1 to 10 | – |
| Cc1ccccc1C(C(=O)NC1CCCCC1)N(C(=O)CNS(=O)(=O)c1ccccc1)c1cccc(F)c1 (stereo not drawn) [Compound 29] | 0.1 to 1 | – |
| Cc1ccccc1C(C(=O)NC1CCCCC1)N(C(=O)Cc1cccs1)c1ccccc1F (stereo not drawn) [Compound 39] | 0.1 to 1 | – |
| Cc1ccccc1C(C(=O)NC1CCCCC1)N(C(=O)CNC(=O)OC(C)(C)C)c1cccc(F)c1 (stereo not drawn) [Compound 368] | – | 0.1 to 1 |
| O=C(NC1CCCCC1)C(c1c(F)ccc(F)c1Cl)N(C(=O)Cc1cccs1)c1cccc(F)c1 (stereo not drawn) [Compound 105] | – | 0.1 to 1 |
| O=C(NC1CCCCC1)C(c1ccccc1[N+](=O)[O-])N(C(=O)Cc1cccs1)c1cccc(F)c1 (stereo not drawn) [Compound 62] | 0.1 to 1 | – |
| CCC(=O)Nc1cccc(N(C(=O)Cc2cccs2)C(C(=O)NC2CCCCC2)c2ccccc2C)c1 (stereo not drawn) [Compound 112] | – | 0.1 to 1 |
| CC(=O)N1CCC[C@@H]1C(=O)N(c1cccc(F)c1)[C@H](C(=O)NC1CCCCC1)c1ccccc1C [Compound 371] | – | 0.1 to 1 |
| Cc1ccccc1C(C(=O)NC1CCCCC1)N(C(=O)Oc1ccccc1)c1ccccc1 (stereo not drawn) [Compound 392] | – | 0.1 to 1 |
| O=C(NC1CCCCC1)C(c1ccccc1O)N(C(=O)Cc1cccs1)c1cccc(F)c1 (stereo not drawn) [Compound 67] | 0.1 to 1 | – |
| O=C(NC1CCCCC1)C(c1cccnc1)N(C(=O)Cc1cccs1)c1cccc(F)c1 (stereo not drawn) [Compound 90] | 1 to 10 | – |
| Cc1ccccc1C(C(=O)NC1CCCCC1)N(C(=O)CNC(=O)OC(C)(C)C)c1ccccc1F (stereo not drawn) [Compound 352] | – | 0.1 to 1 |
| Cc1ccc(N(C(=O)c2sc(C)nc2C)C(C(=O)NC2CCCC2)c2ccccc2)cc1 (stereo not drawn) [Compound 9] | 1 to 10 | – |
| Cc1ccccc1C(C(=O)NC1CCCCC1)N(C(=O)CN1CCc2ccccc2C1)c1cccc(F)c1 (stereo not drawn) [Compound 143] | – | 0.1 to 1 |
| O=C(NC1CCCCC1)C(c1cc(F)c(F)cc1F)N(C(=O)Cc1cccs1)c1cccc(F)c1 (stereo not drawn) [Compound 106] | – | 0.1 to 1 |

From patent US20130184222A1, “[…] ACTIVE COMPOSITIONS AND THEIR METHODS OF USE” (AGIOS PHARMACEUTICALS, INC, priority 2010, published 2013)
